Test results as given in patent publication US12329745B2, “Methods and compositions for treating glucocorticoid excess” (Sparrow Pharmaceuticals, Inc., priority 2022, dated 2025).
Where two headings read alike, the source gives them in different places. Values belong to the molecule of their own block, whether it stands above or below them.

Key:
[1] = system: mouse; conditions: cited from earlier work
[2] = target: T1, HSD-1 (Homo sapiens, UniProt P28845); test: Surface plasmon resonance binding kinetics in presence of NADPH (residence time); conditions: 300 μM NADPH, reciprocal of the dissociation rate constant
Description: Pseudo-irreversible HSD-1 inhibitors can be identified via in vitro enzyme kinetics evaluation, in which they are expected to show longer enzyme residence times compared to other HSD-1 inhibitors. Surface plasmon resonance (SPR) is the resonant oscillation of conduction electrons at the interface between negative and positive permittivity material stimulated by incident light. When a protein is bound to a surface, SPR can be used to detect ligand binding to the protein. […] Association and dissociation of test compounds were monitored in the presence of 300 µM NADPH throughout the experiment.

[3] = cited from earlier work; for plasma exposures after single doses, dose proportionality: low single doses; for estimated target capacity / capacity of saturable distribution: population pharmacokinetics model
[4] = target: T2, adipose HSD-1 (Homo sapiens, UniProt P28845); conditions: in vivo; cited from earlier work
T2 construct: infused continuously into subcutaneous abdominal adipose tissue via microdialysis catheters; from tissue; host or cells: human subcutaneous abdominal adipose tissue, in vivo

[5] = target: skin HSD-1 (Homo sapiens, UniProt P28845); conditions: in vivo; cited from earlier work
[6] = target: liver HSD-1 (Homo sapiens, UniProt P28845); conditions: same subjects, multiple doses; cited from earlier work
[7] = target: T3, brain HSD-1 (Homo sapiens, UniProt P28845); conditions: healthy adults; cited from earlier work
T3 construct: Brain HSD-1 occupancy following a single dose of SPI-62 3 mg; from tissue; host or cells: brain in vivo

[8] = INCB-13739 diabetes; R05093151 non-alcoholic fatty liver disease; AZD4017 impaired wound healing; ABT-384 dementia; BI-187004 diabetes; cited from earlier work
[9] = target: T1, HSD-1; test: Target-mediated drug disposition (TMDD) population PK / PK-PD model; conditions: in vivo
[10] = cynomolgus monkey liver; cited from earlier work
[11] = system: urine tetrahydrocortisone; conditions: healthy adults and elderly subjects; 7-21 days; cited from earlier work
[12] = system: rabbit; conditions: cited from earlier work
[13] = read-out: Residence Time (converted)

T1 sequence (P28845 whole entry): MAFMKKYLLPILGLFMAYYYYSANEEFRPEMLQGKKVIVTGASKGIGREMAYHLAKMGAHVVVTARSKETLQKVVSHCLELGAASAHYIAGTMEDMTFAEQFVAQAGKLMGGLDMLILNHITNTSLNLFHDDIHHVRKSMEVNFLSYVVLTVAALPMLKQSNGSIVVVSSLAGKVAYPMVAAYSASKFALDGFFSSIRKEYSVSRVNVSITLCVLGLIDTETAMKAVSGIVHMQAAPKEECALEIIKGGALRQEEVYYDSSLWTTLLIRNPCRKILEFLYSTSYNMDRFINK
T2 sequence (P28845 whole entry, the tested form may be a part): as the sequence (P28845 whole entry) above
T3 sequence (P28845 whole entry): as above
Chain of skin HSD-1 (P28845 whole entry): as above
Chain of liver HSD-1 (P28845 whole entry): as above

Compound: N#Cc1ccc(-c2ccc(S(=O)(=O)Nc3cccc(N)n3)cc2)cc1 [PF915275]
GC-induced wound healing impairment [1]: prevented | residence time [2]: 5.07 min

Compound: O=C(c1csc(-c2cn[nH]c2)c1)N1[C@@H]2CC[C@H]1C[C@](O)(c1ncccn1)C2 [UE-2343, (5-(1H-pyrazol-4-yl)thiophen-3-yl)((1R,3r,5S)-3-hydroxy-3-(pyrimidin-2-yl)-8-azabicyclo[3.2.1]octan-8-yl)methanone]
plasma levels after single doses of 2 and 5 mg ([3]; in vivo): below the level of quantification | plasma exposures after single doses, dose proportionality [3]: greater than dose-proportional | mean maximum plasma concentration ([3]; single 10 mg dose): 40.4 ng/mL | residence time [2]: 9.05 min

Compound: CCCSc1nc(N2CCC[C@@H](CC(=O)O)C2)ccc1C(=O)NC1CCCCC1 [AZD4017, (S)-2-(1-(5-(cyclohexylcarbamoyl)-6-(propylthio)pyridin-2-yl)piperidin-3-yl)acetic acid]
adipose HSD-1 inhibition after a single dose [4]: demonstrated adipose HSD-1 inhibition | adipose HSD-1 inhibition after repeated dosing [4]: no sustained inhibitory effect | tachyphylaxis of human adipose HSD-1 inhibition with multiple dosing [4]: showed tachyphylaxis | skin HSD-1 inhibition after multiple doses [5]: no skin HSD-1 inhibition | liver HSD-1 inhibition [6]: maximal

residence time [2, 13]: 2.03 min
Compound: CC(C)(O)c1cccn2c(C3(c4ccc(Cl)cc4)CC3)nnc12 [BMS-823778, 2-(3-(1-(4-chlorophenyl)cyclopropyl)-[1,2,4]triazolo[4,3-a]pyridin-8-yl)propan-2-ol]
plasma levels after a single 0.1 or 0.5 mg dose ([3]; in vivo): not detected | plasma levels after multiple doses / steady state, dose proportionality ([3]; in vivo): dose proportional | plasma exposures after single doses, dose proportionality [3]: less than dose proportional

residence time [2]: 2.15 min
Compound: O=C(CC1(c2ccccc2)C2CC3CC1CC(C2)C3O)N1CC(O)C1 (centres unmarked) [BMS-816336]

Kd lower than the Ki [9]: approximately 60 fold | residence time [2, 13]: 43.5 min
Compound: CC(C)(C(=O)N[C@H]1C2CC3CC1C[C@@](C(N)=O)(C3)C2)N1CCN(c2ccc(C(F)(F)F)cn2)CC1 [ABT-384, (1s,3R,4r,5S,7s)-4-(2-methyl-2-(4-(5-(trifluoromethyl)pyridin-2-yl)piperazin-1-yl)propanamido)adamantane-1-carboxamide]
time after cessation of daily administration up to which complete brain HSD-1 inhibition was observed [7]: up to 40 hours | clinical trial efficacy [8]: lack of efficacy | retention in liver [10]: at least 77 days | liver cortisone levels (urine tetrahydrocortisone) [11]: increased substantially | plasma levels after multiple doses / steady state, dose proportionality ([3]; in vivo): approximately dose-proportional | plasma exposures after single doses, dose proportionality [3]: substantial non-linearity | estimated target capacity / capacity of saturable distribution [3]: ~1 mg

residence time [2, 13]: 3.25 min
Compound: F[C@H]1C[C@@](c2ccc(Cl)cc2)(c2nnc(C3CC3)n2C2CC2)C1 [MK-0916, 3-((1s,3s)-1-(4-chlorophenyl)-3-fluorocyclobutyl)-4,5-dicyclopropyl-4H-1,2,4-triazole]
plasma levels after multiple doses / steady state, dose proportionality ([3]; in vivo): approximately dose-proportional | plasma exposures after single doses, dose proportionality [3]: substantial non-linearity | estimated target capacity / capacity of saturable distribution [3]: ~3 mg

residence time [2]: 4.53 min
Compound: CNC(=O)c1ccc(-c2ccc(C3(C(=O)N4CC[C@@]5(C4)OC(=O)c4ccccc45)CC3)cc2)cn1 [INCB-13739]
clinical trial efficacy [8]: support efficacy

residence time [2, 13]: 3.45 min
Compound: CC(C)(C)c1c(C(=O)NC2C3CC4CC(C3)CC2C4)cnn1-c1ccc(C(=O)O)cc1 (centres unmarked) [AZD8329, 4-(4-(((1r,3r,5r,7r)-adamantan-2-yl)carbamoyl)-5-(tert-butyl)-1H-pyrazol-1-yl)benzoic acid]
adipose HSD-1 inhibition after repeated dosing [4]: lost | tachyphylaxis of human adipose HSD-1 inhibition with multiple dosing [4]: showed tachyphylaxis

Compound: CC1(C)[C@@H](OC(=O)CCC(=O)O)CC[C@]2(C)[C@H]3C(=O)C=C4[C@@H]5C[C@@](C)(C(=O)O)CC[C@]5(C)CC[C@@]4(C)[C@]3(C)CC[C@@H]12 [Carbenoxolone]
GC-induced wound healing impairment [1]: prevented

residence time [2, 13]: 8.63 min
Compound: CC1CN(CC(=O)NC2C3CC4CC2CC(C(N)=O)(C4)C3)S(=O)(=O)N(c2c(Cl)cc(C(F)(F)F)cc2Cl)C1 [KR-67607, (1s,3R,4s,5S,7s)-4-(2-(6-(2,6-dichloro-4-(trifluoromethyl)phenyl)-4-methyl-1,1-dioxido-1,2,6-thiadiazinan-2-yl)acetamido)adamantane-1-carboxamide]

Compound: CCS(=O)(=O)CCCC12CCC(c3nnc(-c4ccccc4C(F)(F)F)n3C)(CC1)CC2 [MK-0736, 3-(4-(3-(ethylsulfonyl)propyl)bicyclo[2.2.2]octan-1-yl)-4-methyl-5-(2-(trifluoromethyl)phenyl)-4H-1,2,4-triazole]
plasma exposures after single doses, dose proportionality [3]: non-linear, saturable distribution PK

Compound: CC1(C)[C@@H](O[C@H]2O[C@H](C(=O)O)[C@@H](O)[C@H](O)[C@H]2O[C@@H]2O[C@H](C(=O)O)[C@@H](O)[C@H](O)[C@H]2O)CC[C@]2(C)[C@H]3C(=O)C=C4[C@@H]5C[C@@](C)(C(=O)O)CC[C@]5(C)CC[C@@]4(C)[C@]3(C)CC[C@@H]12 [Glycyrrhizin]
intraocular pressure increase associated with intravitreal triamcinolone [12]: partially prevented

Compound: CC(C)[C@]1(C)SC(N[C@H]2C[C@@H]3CC[C@H]2C3)=NC1=O [AMG-221, (S,E)-2-(((1S,2S,4R)-bicyclo[2.2.1]heptan-2-yl)imino)-5-isopropyl-5-methylthiazolidin-4-one]
plasma exposures after single doses, dose proportionality [3]: nonlinearity of pharmacokinetics

Compound: N#Cc1ccc2c(c1)[C@H]1CCCN(C(=O)c3ccc4nc[nH]c4c3)[C@H]1C2 [BI-187004, (4aR,9aS)-1-(1H-benzo[d]imidazole-6-carbonyl)-2,3,4,4a,9,9a-hexahydro-1H-indeno[2,1-b]pyridine-6-carbonitrile]
clinical trial efficacy [8]: lack of efficacy | plasma exposures after single doses, dose proportionality [3]: substantially below
